This experiment addresses T1, IRAK4 (Homo sapiens, UniProt Q9NWZ3).
T1 construct: Degradation of IRAK4 in OCI-LY10 was quantitatively measured using Meso Scale Discovery technology; endogenous in cells; host or cells: OCI-LY10
T1 sequence (Q9NWZ3 1-460): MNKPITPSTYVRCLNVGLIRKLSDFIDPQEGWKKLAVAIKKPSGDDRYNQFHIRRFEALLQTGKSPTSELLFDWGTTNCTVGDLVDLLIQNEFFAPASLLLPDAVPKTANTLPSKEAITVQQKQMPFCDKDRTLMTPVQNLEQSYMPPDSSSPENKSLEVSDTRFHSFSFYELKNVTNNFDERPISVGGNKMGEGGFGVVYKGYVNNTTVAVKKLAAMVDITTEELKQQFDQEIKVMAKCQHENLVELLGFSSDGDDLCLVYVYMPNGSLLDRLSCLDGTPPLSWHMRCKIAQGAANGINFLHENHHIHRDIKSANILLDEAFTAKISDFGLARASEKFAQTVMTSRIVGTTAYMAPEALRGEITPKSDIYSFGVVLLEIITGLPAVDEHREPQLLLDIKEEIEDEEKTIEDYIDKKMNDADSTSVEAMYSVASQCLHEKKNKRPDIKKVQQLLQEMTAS
The experiment can be described thus: IRAK4 MSD Degradation in OCI-LY10. Type of experiment: cell-based. The note with it: OCI-LY10 cells, MSD. The essentials: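 OCI-LY10 cells exposed to 8-point 1:3 compound series (top 1 to 10 μM) for 4 to 24 h at 37 °C, 5% CO2. Lysate IRAK4 quantified by MSD sandwich immunoassay. DC50 from three-parameter logistic fit, binned A (<0.01 μM) to D (>0.2 μM or not tested).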

Where [1] appears, read: 4 hrs incubation, read-out: IRAK4 degradation in OCI-LY10 at 4 hrs: DC50.
Where [2] appears, read: 24 hrs incubation, read-out: IRAK4 degradation in OCI-LY10 at 24 hrs: DC50.

Structures are written as SMILES. Where two headings read alike, the source gives them in different places.

On to `Cn1c(=O)n(C2CCC(=O)NC2=O)c2ccnc(N3CCN([C@@H]4CCN(C[C@H]5CC[C@H](n6cc(NC(=O)c7cnn8ccc(N9C[C@H]%10C[C@@H]9CO%10)nc78)c(C(F)F)n6)CC5)CC4(F)F)CC3)c21` (stereo partly drawn) [I-743], for which the DC50 was above 200 nM under setting [1] and below 10 nM under setting [2].

Regarding `Cn1c(=O)n(C2CCC(=O)NC2=O)c2ccnc(N3CCN([C@H]4CCN(C[C@H]5CC[C@H](n6cc(NC(=O)c7cnn8ccc(N9C[C@H]%10C[C@@H]9CO%10)nc78)c(C(F)F)n6)CC5)CC4(F)F)CC3)c21` (stereo partly drawn) [I-744], the DC50 under setting [1] is above 200 nM and the DC50 under setting [2] was below 10 nM.

Consider `Cn1c(=O)n(C2CCC(=O)NC2=O)c2ccc(F)c(N3CC(N4CCN([C@H]5CC[C@H](n6cc(NC(=O)c7cnn8ccc(N9C[C@H]%10C[C@@H]9CO%10)nc78)c(C(F)F)n6)CC5)CC4)C3)c21` (stereo partly drawn) [I-745], for which the DC50 under setting [1] is above 200 nM and the half-maximal degradation concentration (DC50) under setting [2] is below 10 nM.

For `Cn1c(=O)n(C2CCC(=O)NC2=O)c2cccc(N3CCN([C@@H]4CCN(C[C@H]5CC[C@H](n6cc(NC(=O)c7cnn8ccc(N9CC%10(COC%10)C9)nc78)c(C(F)F)n6)CC5)CC4(F)F)CC3)c21` (stereo partly drawn) [I-746], the 50% degradation concentration (DC50) is above 200 nM under setting [1] and above 200 nM under setting [2].

For `Cn1c(=O)n(C2CCC(=O)NC2=O)c2cccc(N3CCN([C@H]4CCN(C[C@H]5CC[C@H](n6cc(NC(=O)c7cnn8ccc(N9CC%10(COC%10)C9)nc78)c(C(F)F)n6)CC5)CC4(F)F)CC3)c21` (stereo partly drawn) [I-747], the DC50 is above 200 nM under setting [1] and above 200 nM under setting [2].

For the molecule `Cn1c(=O)n(C2CCC(=O)NC2=O)c2cccc(N3CC(CN4CCN(C[C@H]5CC[C@H](n6cc(NC(=O)c7cnn8ccc(N9C[C@H]%10C[C@@H]9CO%10)nc78)c(C(F)F)n6)CC5)CC4)C3)c21` (stereo partly drawn) [I-748], the DC50 by setting is: under setting [1], above 200 nM; under setting [2], above 200 nM.

For the molecule `Cn1c(=O)n(C2CCC(=O)NC2=O)c2cccc(C3CN([C@@H]4CCN([C@H]5CC[C@H](n6cc(NC(=O)c7cnn8ccc(N9C[C@H]%10C[C@@H]9CO%10)nc78)c(C(F)F)n6)CC5)CC4(F)F)C3)c21` (stereo partly drawn) [I-749], the DC50 by setting is: under setting [1], above 200 nM; under setting [2], above 200 nM.

For `Cn1c(=O)n(C2CCC(=O)NC2=O)c2cccc(C3CN([C@H]4CCN([C@H]5CC[C@H](n6cc(NC(=O)c7cnn8ccc(N9C[C@H]%10C[C@@H]9CO%10)nc78)c(C(F)F)n6)CC5)CC4(F)F)C3)c21` (stereo partly drawn) [I-750], the DC50 is, setting by setting: under setting [1], above 200 nM; under setting [2], above 200 nM.

For `Cn1c(=O)n(C2CCC(=O)NC2=O)c2ccc(N3CC(N4CCN([C@H]5CC[C@H](n6cc(NC(=O)c7cnn8ccc(N9C[C@H]%10C[C@@H]9CO%10)nc78)c(C(F)F)n6)CC5)CC4)C3)c(F)c21` (stereo partly drawn) [I-751], the DC50 by setting is: under setting [1], above 200 nM; under setting [2], above 200 nM.

Consider `Cn1c(=O)n(C2CCC(=O)NC2=O)c2ccc(C3CN(C4CCN([C@H]5CC[C@H](n6cc(NC(=O)c7cnn8ccc(N9C[C@H]%10C[C@@H]9CO%10)nc78)c(C(F)F)n6)CC5)CC4(F)F)C3)c(F)c21` (stereo partly drawn) [I-752], for which the DC50 is above 200 nM under setting [1] and above 200 nM under setting [2].

Consider `Cn1c(=O)n(C2CCC(=O)NC2=O)c2ccc(F)c(C3CN(C4CCN([C@H]5CC[C@H](n6cc(NC(=O)c7cnn8ccc(N9C[C@H]%10C[C@@H]9CO%10)nc78)c(C(F)F)n6)CC5)CC4(F)F)C3)c21` (stereo partly drawn) [I-753], for which the DC50 is above 200 nM under setting [1] and above 200 nM under setting [2].

As to `Cn1c(=O)n(C2CCC(=O)NC2=O)c2cccc(OC3CCN([C@H]4CC[C@H](n5cc6cc(NC(=O)c7cccc(C(F)(F)F)n7)ccc6n5)CC4)CC3(F)F)c21` (stereo partly drawn) [I-754], the DC50 is, setting by setting: under setting [1], above 200 nM; under setting [2], above 200 nM.

In the case of `Cn1c(=O)n(C2CCC(=O)NC2=O)c2cccc(OC3CCN([C@H]4CC[C@H](n5cc6cc(NC(=O)c7cccc(C(F)(F)F)n7)ncc6n5)CC4)CC3(F)F)c21` (stereo partly drawn) [I-755], the DC50 was above 200 nM under setting [1] and above 200 nM under setting [2].

For `Cn1c(=O)n(C2CCC(=O)NC2=O)c2cccc(OC3CCN([C@H]4CC[C@H](n5cc(NC(=O)c6cnn7ccc(N8C[C@H]9C[C@@H]8CO9)nc67)c(C(F)F)n5)CC4)CC3(F)F)c21` (stereo partly drawn) [I-756], the DC50 by setting is: under setting [1], above 200 nM; under setting [2], above 200 nM.

On to `Cn1c(=O)n(C2CCC(=O)NC2=O)c2cccc(C#CCN3CCC(C[C@H]4CC[C@H](n5cc(NC(=O)c6cnn7ccc(N8C[C@H]9C[C@@H]8CO9)nc67)c(C(F)F)n5)CC4)CC3)c21` (stereo partly drawn) [I-757], for which the DC50 under setting [1] was above 200 nM and the DC50 under setting [2] was above 200 nM.

For `Cn1c(=O)n(C2CCC(=O)NC2=O)c2cccc(C#CCN3CCC(C[C@H]4CC[C@H](n5cc6cc(NC(=O)c7cccc(C(F)(F)F)n7)ccc6n5)CC4)CC3)c21` (stereo partly drawn) [I-758], the DC50 under setting [1] was above 200 nM and the DC50 under setting [2] was above 200 nM.

In the case of `Cn1c(=O)n(C2CCC(=O)NC2=O)c2cccc(C#CCN3CCC(C[C@H]4CC[C@H](n5cc6cc(NC(=O)c7cccc(C(F)(F)F)n7)ncc6n5)CC4)CC3)c21` (stereo partly drawn) [I-759], the DC50 is above 200 nM under setting [1] and above 200 nM under setting [2].

Regarding `Cn1c(=O)n(C2CCC(=O)NC2=O)c2cccc(N3CC(C4CCN([C@H]5CC[C@@H](n6cc(NC(=O)c7cnn8ccc(N9C[C@H]%10C[C@@H]9CO%10)nc78)c(C(F)F)n6)CC5)CC4(F)F)C3)c21` (stereo partly drawn) [I-760], the DC50 is above 200 nM under setting [1] and above 200 nM under setting [2].

`Cn1c(=O)n(C2CCC(=O)NC2=O)c2cccc(N3CC(C4CCN(C[C@H]5CC[C@H](n6cc(NC(=O)c7cnn8ccc(N9C[C@H]%10C[C@@H]9CO%10)nc78)c(C(F)F)n6)CC5)CC4(F)F)C3)c21` (stereo partly drawn) [I-761]: the DC50 was above 200 nM under setting [1] and above 200 nM under setting [2].

As for `Cn1c(=O)n(C2CCC(=O)NC2=O)c2cccc(N3CC(C4CCN([C@H]5CC[C@H](n6cc(NC(=O)c7cnn8ccc(N9C[C@H]%10C[C@@H]9CO%10)nc78)c(C(F)F)n6)CC5)CC4(F)F)C3)c21` (stereo partly drawn) [I-762], the DC50 is above 200 nM under setting [1] and above 200 nM under setting [2].

With `Cn1c(=O)n(C2CCC(=O)NC2=O)c2cccc(N3CCN(C(=O)C[C@]4(O)CC[C@@H](n5cc(NC(=O)c6cnn7cccnc67)c(C(F)F)n5)CC4)CC3)c21` (stereo partly drawn) [I-763], the DC50 is above 200 nM under setting [1] and above 200 nM under setting [2].

For `Cn1c(=O)n(C2CCC(=O)NC2=O)c2cccc(N3CCN(C(=O)C[C@]4(O)CC[C@@H](n5cc6cc(NC(=O)c7cccc(C(F)(F)F)n7)ncc6n5)CC4)CC3)c21` (stereo partly drawn) [I-764], the DC50 reads like this: under setting [1], above 200 nM; under setting [2], above 200 nM.

With `COc1cc(NC(=O)c2cccc(C(F)(F)F)n2)cc2cn([C@H]3CC[C@H](CN4CCN(c5c(F)ccc6c5n(C)c(=O)n6C5CCC(=O)NC5=O)CC4)CC3)nc12` (stereo partly drawn) [I-765], the DC50 was above 200 nM under setting [1] and above 200 nM under setting [2].

In the case of `COc1nc(NC(=O)c2cccc(C(F)(F)F)n2)cc2cn([C@H]3CC[C@H](CN4CCN(c5cccc6c5n(C)c(=O)n6C5CCC(=O)NC5=O)CC4)CC3)nc12` (stereo partly drawn) [I-766], the DC50 under setting [1] is above 200 nM and the DC50 under setting [2] was above 200 nM.

As for `Cn1c(NC(=O)c2cccc(C(F)(F)F)n2)cc2cn([C@H]3CC[C@H](CN4CCN(c5cccc6c5n(C)c(=O)n6C5CCC(=O)NC5=O)CC4)CC3)nc2c1=O` (stereo partly drawn) [I-767], the DC50 runs as follows: under setting [1], above 200 nM; under setting [2], above 200 nM.

Consider `Cc1cccc(C(=O)Nc2cc3cn([C@H]4CC[C@H](CN5CC[C@@H](c6cccc7c6n(C)c(=O)n7C6CCC(=O)NC6=O)[C@H](F)C5)CC4)nc3c(=O)n2C)n1` (stereo partly drawn) [I-768], for which the DC50 under setting [1] is above 200 nM and the DC50 under setting [2] is above 200 nM.

Turning to `COc1nc(NC(=O)c2cccc(C(F)(F)F)n2)cc2cn([C@H]3CC[C@H](CN4CCC(c5cccc6c5n(C)c(=O)n6C5CCC(=O)NC5=O)C(F)(F)C4)CC3)nc12` (stereo partly drawn) [I-769], the DC50 by setting is: under setting [1], above 200 nM; under setting [2], above 200 nM.

`COc1nc(NC(=O)c2cccc(C)n2)cc2cn([C@H]3CC[C@H](CN4CCC(c5cccc6c5n(C)c(=O)n6C5CCC(=O)NC5=O)C(F)(F)C4)CC3)nc12` (stereo partly drawn) [I-770]: the DC50 under setting [1] was above 200 nM and the DC50 under setting [2] was above 200 nM.

For the molecule `Cn1c(NC(=O)c2cccc(C(F)(F)F)n2)cc2cn([C@H]3CC[C@H](CN4CCC(c5cccc6c5n(C)c(=O)n6C5CCC(=O)NC5=O)C(F)(F)C4)CC3)nc2c1=O` (stereo partly drawn) [I-771], the DC50 is, setting by setting: under setting [1], above 200 nM; under setting [2], above 200 nM.

With `Cc1cccc(C(=O)Nc2cc3cn([C@H]4CC[C@H](CN5CCC(c6cccc7c6n(C)c(=O)n7C6CCC(=O)NC6=O)C(F)(F)C5)CC4)nc3c(=O)n2C)n1` (stereo partly drawn) [I-772], the DC50 under setting [1] is above 200 nM and the DC50 under setting [2] was above 200 nM.

Consider `COc1nc(NC(=O)c2cccc(C(F)(F)F)n2)cc2cn([C@H]3CC[C@H](CN4CC[C@@H](c5cccc6c5n(C)c(=O)n6C5CCC(=O)NC5=O)[C@H](F)C4)CC3)nc12` (stereo partly drawn) [I-773], for which the DC50 is above 200 nM under setting [1] and above 200 nM under setting [2].

As for `COc1nc(NC(=O)c2cccc(C(F)(F)F)n2)cc2cn([C@H]3CC[C@H](CN4CC[C@H](c5cccc6c5n(C)c(=O)n6C5CCC(=O)NC5=O)[C@@H](F)C4)CC3)nc12` (stereo partly drawn) [I-774], the DC50 runs as follows: under setting [1], above 200 nM; under setting [2], above 200 nM.

In the case of `COc1nc(NC(=O)c2cccc(C)n2)cc2cn([C@H]3CC[C@H](CN4CC[C@@H](c5cccc6c5n(C)c(=O)n6C5CCC(=O)NC5=O)[C@H](F)C4)CC3)nc12` (stereo partly drawn) [I-775], the DC50 is above 200 nM under setting [1] and above 200 nM under setting [2].

As a reminder, the DC50 is the concentration giving 50% degradation.
